Experimental data published in patent US8741834B2, “Dipeptoid prodrugs and the use thereof” (Bayer Intellectual Property GmbH, priority 2008, dated 2014).
Counter-ions that a name gives are not always drawn.

Legend:
[1] = Oral pharmacokinetics in Wistar rats; assay type: in vivo; settings: after oral administration
Procedure: On the day before administration of the substance, a catheter for obtaining blood is implanted in the jugular vein of the experimental animals (male Wistar rats, body weight 200-250 g) under Isofluran® anesthesia.
On the day of the experiment, a defined dose of the test substance is administered as solution into the stomach by gavage. Blood samples (8-12 time points) are taken through the catheter sequentially over the course of 24 h after administration of the substance. Plasma is obtained by centrifuging the samples in heparinized tubes. Acetonitrile is added to a defined plasma volume per time point to precipitate proteins. After centrifugation, test substance and, where appropriate, known cleavage products of the test substance in the supernatant are determined quantitatively using a suitable LC/MS-MS method.
The measured plasma concentrations are used to calculate pharmacokinetic parameters of the test substance and of the active ingredient compound (A) liberated therefrom, such as AUC, Cmax, T1/2 (half-life).

[2] = Stability in buffer at various pH values; assay type: physicochemical
Procedure: 0.3 mg of the test substance is weighed into a 2 ml HPLC vial and 0.5 ml of acetonitrile or acetonitrile/DMSO (9:1) is added. The substance is dissolved by putting the sample vessel in an ultrasonic bath for about 10 seconds. Then 0.5 ml of the respective buffer solution is added, and the sample is again treated in the ultrasonic bath.
pH 2: 0.03 mol of citric acid, 0.061 mol of sodium chloride and 0.0082 mol of hydrochoric acid ad 1 liter of water;
pH 4: 1 liter of Millipore water is adjusted to pH 4.0 with 1 N hydrochloric acid;
pH 5: 0.096 mol of citric acid and 0.2 mol of sodium hydroxide ad 1 liter of water;
pH 6: 0.06 mol of citric acid and 0.16 mol of sodium hydroxide ad 1 liter of water;
pH 7.4: 90.0 g of sodium chloride, 13.61 g of potassium dihydrogen phosphate and 83.35 g of 1 N sodium hydroxide solution are made up to 1 liter with water; this solution is then further diluted 1:10 with Millipore water.
pH 8: 0.013 mol of borax and 0.021 mol of hydrochloric acid ad 1 liter of water.
5 μl portions of the test solution are analyzed by HPLC for their content of unchanged test substance, and of active substance (A) formed, every hour over a period of 24 hours at 37° C. The percentage areas of the appropriate peaks are used for quantification.
The ratios of the peak areas (F) at the respective time points in relation to the peak areas at the starting time are shown in Table 2 for representative exemplary embodiments: […]

[3] = Determination of the solubility in 5% strength aqueous dextrose solution; assay type: physicochemical; settings: saline or isotonic, thermodynamic from solid, room temperature
Procedure: The test substance is suspended in 5% strength aqueous dextrose solution. This suspension is shaken at room temperature for 24 h. After ultracentrifugation at 224 000 g for 30 min, the supernatant is diluted with DMSO and analysed by HPLC. A two-point calibration plot of the test compound in DMSO is used for quantification.
Agilent 1100 with DAD (G1315A), quat. Pump (G1311A), autosampler CTC HTS PAL, degasser (G1322A) and column thermostat (G1316A); column: Phenomenex Gemini C18, 5 μm, 50 mm×2 mm; temperature: 40° C.; eluent A: water/phosphoric acid pH 2, eluent B: acetonitrile; flow rate: 0.7 ml/min; gradient: 0-0.5 min 85% A, 15% B; ramp 0.5-3 min 10% A, 90% B; 3-3.5 min 10% A, 90% B; ramp 3.5-4 min 85% A, 15% B; 4-5 min 85% A, 15% B.
Agilent 1100 with DAD (G1315A), quat. pump (G1311A), autosampler CTC HTS PAL, degasser (G1322A) and column thermostat (G1316A); column: VDSoptilab Kromasil 100 C18, 3.5 μm, 60 mm×2.1 mm; temperature: 30° C.; eluent A: water+5 ml of perchloric acid/liter, eluent B: acetonitrile; flow rate: 0.75 ml/min; gradient: 0-0.5 min 98% A, 2% B; ramp 0.5-4.5 min 10% A, 90% B; 4.5-6 min 10% A, 90% B; ramp 6.5-6.7 min 98% A, 2% B; 6.7-7.5 min 98% A, 2% B.

% test substance after 4 h [F(t = 4 h) × 100/F(t = 0 h)] ([2]; pH 4, 37° C.) [%]	% test substance after 24 h [F(t = 24 h) × 100/F(t = 0 h)] ([2]; pH 4, 37° C.) [%]	% test substance after 4 h [F(t = 4 h) × 100/F(t = 0 h)] ([2]; pH 7.4, 37° C.) [%]	% test substance after 24 h [F(t = 24 h) × 100/F(t = 0 h)] ([2]; pH 7.4, 37° C.) [%]	solubility thermodynamic at 24 h [3] [µg/mL]	% test substance after 4 h [F(t = 4 h) × 100/F(t = 0 h)] ([2]; pH 5, 37° C.) [%]	% test substance after 24 h [F(t = 24 h) × 100/F(t = 0 h)] ([2]; pH 5, 37° C.) [%]	Structure (SMILES)	detectability of the test substance in plasma [1]
100	100	82	34				C[C@H](NC(=O)[C@@H]1CCCN1)C(=O)OC[C@H](COc1ccc(-c2c(C#N)c(N)nc(SCc3coc(-c4ccc(Cl)cc4)n3)c2C#N)cc1)OC(=O)[C@H](C)NC(=O)[C@@H]1CCCN1 [Example 8, (2S)-3-{4-[2-Amino-6-({[2-(4-chlorophenyl)-1,3-oxazol-4-yl]methyl}sulfanyl)-3,5-dicyanopyridin-4-yl]phenoxy}propane-1,2-diyl (2S,2′S)-bis(2-{[(2S)-pyrrolidin-2-ylcarbonyl]amino}propanoate)bis(trifluoroacetic acid) salt]	no longer detectable in plasma even at the first measurement point
				750			C[C@H](N)C(=O)N[C@H](C(=O)OC[C@H](COc1ccc(-c2c(C#N)c(N)nc(SCc3coc(-c4ccc(Cl)cc4)n3)c2C#N)cc1)OC(=O)[C@@H](NC(=O)[C@H](C)N)[C@@H](C)O)[C@@H](C)O [Example 38, (2S)-3-{4-[2-Amino-6-({[2-(4-chlorophenyl)-1,3-oxazol-4-yl]methyl}sulfanyl)-3,5-dicyanopyridin-4-yl]phenoxy}propane-1,2-diyl (2S,3R,2′S,3′R)-bis(2-{[(2S)-2-aminopropanoyl]amino}-3-hydroxybutanoate)bis(trifluoroacetic acid) salt]	
98	94	2	0	610			C[C@H](NC(=O)[C@@H](N)CCCCN)C(=O)OC[C@H](COc1ccc(-c2c(C#N)c(N)nc(SCc3coc(-c4ccc(Cl)cc4)n3)c2C#N)cc1)OC(=O)[C@H](C)NC(=O)[C@@H](N)CCCCN [Example 35, (2S)-3-{4-[2-Amino-6-({[2-(4-chlorophenyl)-1,3-oxazol-4-yl]methyl}sulfanyl)-3,5-dicyanopyridin-4-yl]phenoxy}propane-1,2-diyl(2S,2′S)-bis(2-{[(2S)-2,6-diaminohexanoyl)amino}propanoate)tetrahydrochloride]	
				490			C[C@@H](O)[C@H](N)C(=O)NCCC(=O)OC[C@H](COc1ccc(-c2c(C#N)c(N)nc(SCc3coc(-c4ccc(Cl)cc4)n3)c2C#N)cc1)OC(=O)CCNC(=O)[C@@H](N)[C@@H](C)O [Example 39, (2S)-3-{4-[2-Amino-6-({[2-(4-chlorophenyl)-1,3-oxazol-4-yl]methyl}sulfanyl)-3,5-dicyanopyridin-4-yl]phenoxy}propane-1,2-diyl bis(3-{[(2S,3R)-2-amino-3-hydroxybutanoyl]amino}propanoate)bis(trifluoroacetic acid) salt]	
				220			C[C@H](N)C(=O)NCCC(=O)OC[C@H](COc1ccc(-c2c(C#N)c(N)nc(SCc3coc(-c4ccc(Cl)cc4)n3)c2C#N)cc1)OC(=O)CCNC(=O)[C@H](C)N [Example 31, (2S)-3-{4-[2-Amino-6-({[2-(4-chlorophenyl)-1,3-oxazol-4-yl]methyl}sulfanyl)-3,5-dicyanopyridin-4-yl]phenoxy}propane-1,2-diyl bis(3-{[(2S)-2-aminopropanoyl)amino}propanoate)dihydrochloride]	
				590			C[C@H](NC(=O)[C@@H](N)CCN)C(=O)OC[C@H](COc1ccc(-c2c(C#N)c(N)nc(SCc3coc(-c4ccc(Cl)cc4)n3)c2C#N)cc1)OC(=O)[C@H](C)NC(=O)[C@@H](N)CCN [Example 3, (2S)-3-{4-[2-Amino-6-({[2-(4-chlorophenyl)-1,3-oxazol-4-yl]methyl}sulfanyl)-3,5-dicyanopyridin-4-yl]phenoxy}propane-1,2-diyl (2S,2′S)-bis(2-{[(2S)-2,4-diaminobutanoyl]amino}propanoate)tetrahydrochloride]	
100	100	0	0		98	83	C[C@H](NC(=O)CN)C(=O)OC[C@H](COc1ccc(-c2c(C#N)c(N)nc(SCc3coc(-c4ccc(Cl)cc4)n3)c2C#N)cc1)OC(=O)[C@H](C)NC(=O)CN [Example 7, (2S)-3-{4-[2-Amino-6-({[2-(4-chlorophenyl)-1,3-oxazol-4-yl]methyl}sulfanyl)-3,5-dicyanopyridin-4-yl]phenoxy}propane-1,2-diyl (2S,2′S)-bis{2-[(aminoacetyl)amino]propanoate}dihydrochloride]	no longer detectable in plasma even at the first measurement point
				860			C[C@H](NC(=O)[C@@H](N)CCCN)C(=O)OC[C@H](COc1ccc(-c2c(C#N)c(N)nc(SCc3coc(-c4ccc(Cl)cc4)n3)c2C#N)cc1)OC(=O)[C@H](C)NC(=O)[C@@H](N)CCCN [Example 4, (2S)-3-{4-[2-Amino-6-({[2-(4-chlorophenyl)-1,3-oxazol-4-yl]methyl}sulfanyl)-3,5-dicyanopyridin-4-yl]phenoxy}propane-1,2-diyl (2S,2′S)-bis(2-{[(2S)-2,5-diaminopentanoyl]amino}propanoate)tetrahydrochloride]	
100	100	100	68	670			CC[C@H](C)[C@H](N)C(=O)N[C@@H](C)C(=O)OC[C@H](COc1ccc(-c2c(C#N)c(N)nc(SCc3coc(-c4ccc(Cl)cc4)n3)c2C#N)cc1)OC(=O)[C@H](C)NC(=O)[C@@H](N)[C@@H](C)CC [Example 2, (2S)-3-{4-[2-Amino-6-({[2-(4-chlorophenyl)-1,3-oxazol-4-yl]methyl}sulfanyl)-3,5-dicyanopyridin-4-yl]phenoxy}propane-1,2-diyl (2S,2′S)-bis(2-{[(2S,3S)-2-amino-3-methylpentanoyl]amino}propanoate)dihydrochloride]	no longer detectable in plasma even at the first measurement point
				700			C[C@@H](O)[C@H](NC(=O)CN)C(=O)OC[C@H](COc1ccc(-c2c(C#N)c(N)nc(SCc3coc(-c4ccc(Cl)cc4)n3)c2C#N)cc1)OC(=O)[C@@H](NC(=O)CN)[C@@H](C)O [Example 36, (2S)-3-{4-[2-Amino-6-({[2-(4-chlorophenyl)-1,3-oxazol-4-yl]methyl}sulfanyl)-3,5-dicyanopyridin-4-yl]phenoxy}propane-1,2-diyl (2S,3R,2′S,3′R)-bis{2-[(aminoacetyl)amino]-3-hydroxybutanoate}bis(trifluoroacetic acid) salt]	
